Tests used:
[1] = test system: SNORD115 host-gene transcript (SNHG115); assay: RNA-sequencing of Angelman syndrome iPSC neurons: SNHG115; type: cell-based, human; conditions: 30 μM, six days post-treatment, RNA-seq
Description: RNA was isolated using Qiagen RNAeasy Plus (74136, Qiagen, Hilden, Germany). RNA concentration was determined using Qubit Fluorometric Quantitation (Thermo Fisher Scientific) and RNA quality was assessed using a 4200 Agilent TapeStation (Agilent, Santa Clara, Calif.). RNA-sequencing libraries were generated using the Illumina TruSeq Stranded Total RNA kit (20020597, Illumina, Inc., San Diego, Calif.) according to the manufacturer's protocol. 75 base-pair paired-end sequencing was performed using a NextSeq 500 (IIlumina, San Diego, Calif.) at the Texas A&M Institute for Genome Sciences and Society Genomics core. Raw sequencing reads were processed using CASAVA. The resulting FASTQ sequences were examined using FASTQC. […]
To determine whether ASO-4.4.PS.L and ASO-6.1.PO-1.O affect the levels of RNA transcripts encoded by the PWS polycistronic transcript, RNA-sequencing was performed on AS iPS cells treated with each ASO and the steady state RNA levels of SNURF, SNRPN, the SNORD116 host-gene transcript (SNHG116), the SNORD116 snoRNAs, IPW, the SNORD115 host-gene transcript (SNHG115), the SNORD115 snoRNAs, and UBE3A-AS were quantified. UBE3A steady state RNA levels were also measured. […]

SNORD116 = SNORD116 steady state RNA (qRT-PCR) in GABAergic iPSC-derived neurons; type: cell-based, human; conditions: 10-point dose curve 1 nM-30 μM; 14 DIV to 20 DIV
Text: The effects of ASO-4 and Topotecan were then examined on the SNORD116, IPW, SNORD115, and SNORD109A RNAs, which are located upstream of the ASO-4 target region (see FIG. 1A).
GABAergic and glutamatergic induced pluripotent stem cell (iPSC) derived neural precursor cells (NRC-100-010-001 and GNC-301-030-001, Cellular Dynamics International, Madison Wis.) were differentiated into neurons according to the manufactures protocol. Briefly, neural precursor cells were thawed and resuspended in chemically defined medium and added to sterile-culture plates coated with poly-D-lysine and laminin. The medium was replaced 24 hr after plating and then one-half of the medium was replaced every 3-5 days afterwards.
For cultured iPSC-derived neurons, RNA isolation and cDNA synthesis were performed using the Cell-to-CT kit (Thermo Fisher Scientific) in a lysate volume of 55 μl.
The steady state RNA levels of target transcripts were measured using TaqMan quantitative reverse-transcription PCR (qRT-PCR) assays. […] Cycling conditions were 2 minutes at 50° C., 10 minutes at 95° C., and 40 cycles of 15 seconds at 95° C. and 1 minute at 60° C., with readings taken at the 60° C. step of every cycle. […] Data was retrieved and analyzed with the BIORAD CFX Maestro software (Bio-Rad Laboratories). […]

Row | Compound | Difference, SNH115G RNA level relative to vehicle [1] | Difference, SNH115G RNA level relative to vehicle ([1]; listed as ASO-6.1.PS-1.O) | effect on SNORD116 RNA levels (in words) (SNORD116)
1 | C^O*U^O*G^O*G^O-t*g*t*c*a*a*c*a*a*g-C^O*C^O*A^O*A^o [ASO-6.1.PO-1.O] | significantly reduced | −0.55 | –
2 | CC[C@@]1(O)C(=O)OCc2c1cc1n(c2=O)Cc2cc3c(CN(C)C)c(O)ccc3nc2-1 [Topotecan, reference compound] | – | – | significant effect on SNORD116, IPW, SNORD115, and SNORD109A/B RNA levels that was dose dependent

Reference: US11198869B2, “Angelman syndrome antisense treatment” (The Texas A&M University System, priority 2017, dated 2021)
